Laboratory results published in article PMC7762591, “AmOctα2R: Functional Characterization of a Honeybee Octopamine Receptor Inhibiting Adenylyl Cyclase Activity” (International Journal of Molecular Sciences, 2020).
Entries after “also recorded” stand apart in the source; their conditions may differ. Where two headings read alike, the source gives them in different places.

How the values were obtained:
AmOctα2R-HA [1] = target: T1, AmOctα2R-HA (Apis mellifera, UniProt A0A7M7FZR9); test: Antagonist concentration-response on tyramine-activated AmOctα2R-HA in flpTM cells; format: cell-based
T1 sequence (A0A7M7FZR9 entry or part of it): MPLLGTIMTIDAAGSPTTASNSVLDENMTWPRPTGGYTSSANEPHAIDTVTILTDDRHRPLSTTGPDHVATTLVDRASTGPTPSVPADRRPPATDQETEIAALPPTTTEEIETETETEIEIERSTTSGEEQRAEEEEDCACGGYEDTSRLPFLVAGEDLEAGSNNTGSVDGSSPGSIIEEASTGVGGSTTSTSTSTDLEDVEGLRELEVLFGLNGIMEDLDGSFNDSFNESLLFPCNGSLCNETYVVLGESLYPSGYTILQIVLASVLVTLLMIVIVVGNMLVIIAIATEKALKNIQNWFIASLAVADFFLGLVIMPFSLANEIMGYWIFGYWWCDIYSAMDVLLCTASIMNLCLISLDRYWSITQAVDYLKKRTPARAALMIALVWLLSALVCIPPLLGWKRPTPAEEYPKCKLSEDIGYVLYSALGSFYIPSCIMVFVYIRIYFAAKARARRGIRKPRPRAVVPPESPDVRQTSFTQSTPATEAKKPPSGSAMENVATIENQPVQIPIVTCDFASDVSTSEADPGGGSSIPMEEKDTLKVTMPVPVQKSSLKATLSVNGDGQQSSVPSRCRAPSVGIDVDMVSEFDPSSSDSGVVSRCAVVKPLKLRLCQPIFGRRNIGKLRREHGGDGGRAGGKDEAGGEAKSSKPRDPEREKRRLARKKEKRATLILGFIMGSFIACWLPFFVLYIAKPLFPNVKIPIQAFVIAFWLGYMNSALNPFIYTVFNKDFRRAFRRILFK
Method: The ability of various potential antagonists for impairing AmOctα2R-HA activity was assessed in a similar way. […] Ligand concentrations that led to the half-maximal inhibition of AmOctα2R-HA (IC50) were determined from the concentration–response curves and are summarized in Table 2.
(§1) For AmOctα2R-HA expression and pharmacological analysis, we used a human embryonic kidney (HEK293; flpIn cells; Invitrogen/ThermoFisher Scientific; #750-07)-based cell line that was transfected with a gene encoding a variant of the A2-subunit of the olfactory CNG ion channel (flpTM cells), provided by Sibion biosciences, Jülich, Germany. These flpTM cells were transfected with 3 µg, 8 µg, or 12 µg of the pcAmOctα2R-HA construct by a modified calcium phosphate method following a previously established protocol. Transfected cells were selected in the presence of the antibiotics G418 (1 mg/mL) and hygromycin (100 µg/mL). Expression of AmOctα2R-HA was monitored by Western blotting and immunocytochemistry using anti-HA antibodies (Roche/Sigma-Aldrich/Merck).
(§2) A stably transfected cell line was used to examine AmOctα2R-HA receptor activity by Ca^2+ imaging. Control measurements were performed in the parental (flpTM) cell line. Changes in [cAMP]i were registered indirectly via co-expressed CNG channels that were opened by cAMP and cause an influx of extracellular Ca^2+ [30, 32, 48]. Changes in [Ca^2+]i were monitored with the Ca^2+-sensitive fluorescent dye Fluo-4. Cells were grown in 96-well dishes to a density of approximately 2 × 10^4 cells per well and were loaded at room temperature with Fluo-4 AM as described previously. After 90 min, the loading solution was substituted with a dye-free extracellular solution (ECS; 120 mM NaCl, 5 mM KCl, 2 mM MgCl2, 2 mM CaCl2, 10 mM HEPES, and 10 mM glucose, pH 7.4 (NaOH)) containing 100 µM IBMX. The plate was transferred into a fluorescence reader (FLUOstar Omega, BMG Labtech, Ortenberg, Germany) to monitor Fluo-4 fluorescence. The excitation wavelength was 485 nm. Fluorescence emission was detected at 520 nm. Concentration series of various biogenic amines and synthetic receptor ligands were added, once Fluo-4 fluorescence intensity reached a stable value in each well. The changes in Fluo-4 fluorescence were recorded automatically. Concentration–response curves were established from at least three independent experiments with quadruplicate measurements.

AmOctα2R-HA [2] = target: T1, AmOctα2R-HA; test: Antagonist concentration-response on octopamine-activated AmOctα2R-HA in flpTM cells; format: cell-based
Method: as §1, §2
Table S3. Mean values for half-maximal inhibition (IC50 [M] and log IC50 ± SD) for substances with antagonistic activity on octopamine-activated AmOctα2R. For each substance at least […] independent experiments with quadruplicate measurements were performed. Values were obtained from non-linear fitting of the data from concentration-response curves (GraphPad Prism 5.04).
Substance IC50 [M] log IC50 […]
Biol Direct. 2008, 3, 20. […]
Int.

AmOctα2R-HA [3] = target: T1, AmOctα2R-HA; test: Agonist effects on NKH 477-stimulated cAMP (Fluo-4 Ca2+ fluorescence via co-expressed CNG channel) in AmOctα2R-HA-expressing flpTM cells; format: cell-based; conditions: for effect on NKH 477-stimulated cAMP production (Ca2+-dependent fluorescence signal): biogenic amines 10^−6 M each
Method: as §1, §2

[4] = tested on: nontransfected flpTM cells; test: Control measurements of Fluo-4 fluorescence in nontransfected (parental) flpTM cells; format: cell-based, human
Method: as §1
A stably transfected cell line was used to examine AmOctα2R-HA receptor activity by Ca^2+ imaging. […] Changes in [Ca^2+]i were monitored with the Ca^2+-sensitive fluorescent dye Fluo-4. […] The plate was transferred into a fluorescence reader (FLUOstar Omega, BMG Labtech, Ortenberg, Germany) to monitor Fluo-4 fluorescence. […] Fluorescence emission was detected at 520 nm. Concentration series of various biogenic amines and synthetic receptor ligands were added, once Fluo-4 fluorescence intensity reached a stable value in each well. The changes in Fluo-4 fluorescence were recorded automatically. […]

DmOctα2R = tested on: DmOctα2R; design: method as in PMID 28942992; conditions: dose-dependent activation of DmOctα2R; cited from earlier work
[5] = tyramine-activated (10 µM tyramine)
[6] = tyramine-activated (10 µM tyramine), 10 µM NKH 477, 100 µM IBMX, read-out: IC50 [M], mean value for half-maximal inhibition
[7] = block of the action of octopamine, second value of the pair, read-out: IC50
[8] = log IC50 ± SD, log of IC50 in M, octopamine-activated (3 × 10^−7 M octopamine)
[9] = log of IC50 in M, tyramine-activated (10 µM tyramine), read-out: logIC50 ± SD (converted)
[10] = log of IC50 in M, octopamine-activated (3 × 10^−7 M octopamine), read-out: log IC50 ± SD (converted)
[11] = log of EC50 in M, mean of all experiments, octopamine n = 7, tyramine n = 11, read-out: logEC50 ± SD, mean value (converted)
[12] = log of EC50 in M, single concentration-response curve (Figures 4 and 6), read-out: logEC50 ± SD, typical experiment (converted)
[13] = mean of all experiments, octopamine n = 7, tyramine n = 11, 10 µM NKH 477, 100 µM IBMX, read-out: EC50 [M], mean value for half-maximal stimulation
[14] = single concentration-response curve (Figures 4 and 6), octopamine fitted from 10^−9 M to 3 × 10^−6 M, read-out: EC50 (half-maximal reduction of cAMP / activation), typical experiment

NCCc1c[nH]c2ccc(C(N)=O)cc12 [5-CT, 5-carboxamidotryptamine]
logIC50 ± SD (AmOctα2R-HA [1]; log of IC50 in M, tyramine-activated (10 µM tyramine)): −8.48 ± 0.20
Maximal Inhibition [%] (AmOctα2R-HA [1]; [5]): 10.8%
IC50 (AmOctα2R-HA [1]; [6]): 4.16e-09 M
IC50 (AmOctα2R-HA [2]; [7]): 0.27 nM
log IC50 ± SD (AmOctα2R-HA [2]; log of IC50 in M, octopamine-activated (3 × 10^−7 M octopamine)): -9.57 ± 0.21

COc1ccc2[nH]cc(CCN)c2c1 [5-MT, 5-methoxytryptamine]
IC50 (AmOctα2R-HA [1]; IC50, block of the action of tyramine, first value of the printed pair): 2.06e-08 M
IC50 (AmOctα2R-HA [1]; logIC50 ± SD, log of IC50 in M, tyramine-activated (10 µM tyramine)): 1.91e-08 M
Maximal Inhibition [%] (AmOctα2R-HA [1]; [5]): 20.3%
IC50 (AmOctα2R-HA [2]; IC50, block of the action of octopamine, second value of the pair): 836 nM
IC50 (AmOctα2R-HA [2]; [8]): 832 nM

CCCN(CCC)C1CCc2cccc(O)c2C1 (stereo not drawn) [8-OH-DPAT, 8-Hydroxy-2-(dipropylamino)tetralin]
IC50 (AmOctα2R-HA [1]): 7.08e-07 M
Maximal Inhibition [%] (AmOctα2R-HA [1]; [5]): 7.21%
IC50 (AmOctα2R-HA [2]; [8]): 166 nM

Cc1nn(C)c(C)c1-c1cccc2c1CC[C@H](N(C)C)C2 [AS-19]
IC50 [M], mean value for half-maximal inhibition (AmOctα2R-HA [1]; tyramine-activated (10 µM tyramine), 10 µM NKH 477, 100 µM IBMX): did not show any effect; also recorded: no effect

NCCc1ccc(O)c(O)c1 [dopamine]
effect on NKH 477-stimulated cAMP production (Ca2+-dependent fluorescence signal) (AmOctα2R-HA [3]): no effect

NC1=NCC2c3ccccc3Cc3ccccc3N12 (stereo not drawn) [epinastine]
IC50 (AmOctα2R-HA [1]; [9]): 1.78e-08 M
Maximal Inhibition [%] (AmOctα2R-HA [1]; [5]): 17.31%
IC50 (AmOctα2R-HA [2]; [10]): 16.2 nM

O=C(c1ccc(F)cc1)C1CCN(CCn2c(=O)[nH]c3ccccc3c2=O)CC1 [ketanserin]
IC50 (AmOctα2R-HA [1]; [9]): 5.13e-07 M
Maximal Inhibition [%] (AmOctα2R-HA [1]; [5]): 17.11%
IC50 (AmOctα2R-HA [2]; [10]): 324 nM

NCC(O)c1ccc(O)cc1 (stereo not drawn) [octopamine]
octopamine concentration at which an increase in the fluorescence signal was observed (AmOctα2R-HA [3]; AmOctα2R-HA-expressing flpTM cells, U-shaped curve, 10 µM NKH 477, 100 µM IBMX): ≥ 3 µM
Emax at 1 µM (AmOctα2R-HA [3]; at 10^−6 M octopamine, relative to 10 µM NKH 477 (=100%), read-out: maximal reduction of cAMP synthesis): ~25%
effect on NKH 477-stimulated cAMP production (Ca2+-dependent fluorescence signal) (AmOctα2R-HA [3]): decrease in the Ca^2+-dependent fluorescence signal
EC50 (AmOctα2R-HA [3]; [11]): 3.72e-08 M
EC50 (AmOctα2R-HA [3]; [12]): 1.17e-07 M
EC50 (AmOctα2R-HA [3]; [13]): 5.87e-08 M
specificity for octopamine over tyramine (difference in EC50) (AmOctα2R-HA [3]; ratio of EC50 values): ~ 30 fold
EC50 (AmOctα2R-HA [3]; [14]): 1.17e-07 M
octopamine concentration leading to an increase in Fluo-4 fluorescence ([4]; in the presence of NKH 477): ≥ 300 nM

Cc1ccc(N(CC2=NCCN2)c2cccc(O)c2)cc1 [phentolamine]
IC50 (AmOctα2R-HA [1]; [9]): 5.01e-09 M
Maximal Inhibition [%] (AmOctα2R-HA [1]; [5]): 16.1%
IC50 (AmOctα2R-HA [1]; [6]): 5.6e-09 M
IC50 (AmOctα2R-HA [2]; [7]): 8.21 nM
IC50 (AmOctα2R-HA [2]; [10]): 8.13 nM

NCCc1c[nH]c2ccc(O)cc12 [serotonin, 5-hydroxytryptamine]
EC50 (DmOctα2R): 1040 nM
activation of AmOctα2R (AmOctα2R-HA [3]): failed to activate
effect on NKH 477-stimulated cAMP production (Ca2+-dependent fluorescence signal) (AmOctα2R-HA [3]): no effect

NCCc1ccc(O)cc1 [tyramine]
effect on NKH 477-stimulated cAMP production (Ca2+-dependent fluorescence signal) (AmOctα2R-HA [3]): decrease in the Ca^2+-dependent fluorescence signal
EC50 (AmOctα2R-HA [3]; [11]): 1.66e-06 M
EC50 (AmOctα2R-HA [3]; [12]): 1.63e-06 M
EC50 (AmOctα2R-HA [3]; [13]): 1.85e-06 M
Emax (AmOctα2R-HA [3]; saturated at tyramine concentration of ≥3 × 10^−5 M, relative to 10 µM NKH 477 (=100%), read-out: reduction of cAMP signal at saturation): ~17%
EC50 (AmOctα2R-HA [3]; [14]): 1.63e-06 M
change in the fluorescence signal upon application [4]: no change in the fluorescence signal

COC(=O)[C@@H]1[C@H]2C[C@H]3c4[nH]c5ccccc5c4CCN3C[C@@H]2CC[C@@H]1O [yohimbine]
IC50 (AmOctα2R-HA [1]): 7.59e-08 M
Maximal Inhibition [%] (AmOctα2R-HA [1]; [5]): 14.3%
IC50 (AmOctα2R-HA [2]; [8]): 363 nM
